Measured values as given in patent US8772235B2, “Compounds having peptides conjugated to bone targeting moieties and methods of making and using thereof” (The Governors of the University of Alberta, priority 2009, dated 2014).

Tests used:
[1] = Effect on plasma phosphate level in normal rats (SMCC series); format: in vivo, rat; details: 20 IU sCT/kg equivalent, subcutaneous
Experimental: (§1) Pharmacodynamic response of sCT analogue was evaluated by analyzing plasma calcium concentration in the rat model. Sprague Dawley female rats weighing 230-260 g (about 6 weeks old) were purchased from Charles River, USA and housed at the University of Alberta Animal Holding Unit. All experimental protocols were approved by the Animals Ethics Committee of the University of Alberta. The rats were divided randomly into five groups of 3 animals each and the pharmacodynamic response was assessed following subcutaneous administration of the sCT or analogue equivalent to 20 IU sCT/kg body weight. Rats were anesthetized using Isoflurane inhalation anesthesia and the 200 μl blood samples were obtained in heparinized Eppendorf microtubes before drug injection. Then 100 μl of sCT or equivalent dose in 20 mM Sodium Acetate buffer pH 5 was sub cu injected and the blood samples were collected 1, 2, 3 and 4 hrs post injection from jugular vein. Blood plasma was obtained by centrifuging the samples at 5000 rpm for 10 min and collecting the supernatant. Plasma calcium level was assayed by QuantiChrom™ Calcium Assay Kit (BioAssay Systems, CA USA) and the plasma phosphate level was assayed by QuantiChrom™ Phosphate Assay Kit (BioAssay Systems, CA USA).

[2] = Circular dichroism, secondary structure of sCT, sCT-SMCC and sCT-BP; format: physicochemical; details: 20 mM acetate buffer pH 5.0, 400 μg/mL sCT or equivalent
Experimental: For a more detailed analysis of the influence of BP coupling on secondary structural confirmation of sCT, the circular dichroism (CD) spectrum of sCT, sCT-SMCC and sCT-BP was measured in the 20 mM acetate buffer pH 5.0. CD spectra were obtained with a ConvCD spectrophotometer instrument. Spectra were acquired over a wavelength range of 190 to 260 nm. The N2 flow rate was set at 5 l/min. The sample cuvette was cleaned with 20 mM Sodium Acetate buffer pH 5, and the spectra of test samples, which comprised of 400 μg/mL of sCT or equivalent the same buffer, were recorded with the corresponding buffer serving as blanks.

[3] = Effect on plasma calcium level in normal rats (SMCC series); format: in vivo, rat; details: 20 IU sCT/kg equivalent, subcutaneous
Experimental: as §1

[4] = first hour, vs acetate buffer controls

For “sCT-BP: sCT-SMCC coupled with Thiol-BP (thiol bisphosphonate); mixture of sCT-2SMCC-1BP to sCT-3SMCC-3BP”, the “percentage of plasma phosphate reduction” value ([1]; 4 hour post dosing) was 8.54±5.11%, the “percentage of plasma phosphate reduction” value [1, 4] was 7.65±4.73% and the “percentage of plasma phosphate reduction” value ([1]; second hour) was 12.47±5.09%. For the same substance, the “secondary structure by CD spectrum” value [2] was “strong 6-helical character”, the “percentage of plasma calcium reduction” value ([3]; 4 hour post dosing) was 27.36±2.28% and the “percentage of plasma calcium reduction” value [3, 4] was 13.45±1.64%. For the same substance, the “percentage of plasma calcium reduction” value ([3]; second hour) was 12.47±5.09% and the “percentage of plasma calcium reduction” value ([3]; third hour) was 26.62±5.28%.

In the case of “sCT-SMCC: sCT reacted with sulfo-SMCC: mono-, di- and tri-substituted thiol reactive sCT intermediates”, the “percentage of plasma phosphate reduction” value ([1]; 4 hour post dosing) is reported as 10.4±0.54%, the “percentage of plasma phosphate reduction” value [1, 4] is reported as 9.18±1.87% and the “percentage of plasma phosphate reduction” value ([1]; second hour) is reported as 12.18±2.03%. For the same substance, the “secondary structure by CD spectrum” value [2] was “increased peak intensity at 222 nm”, the “percentage of plasma calcium reduction” value ([3]; 4 hour post dosing) was 28.05±2.08% and the “percentage of plasma calcium reduction” value [3, 4] was 15.27±2.35%. For the same substance, the “percentage of plasma calcium reduction” value ([3]; second hour) was 19.43±2.32% and the “percentage of plasma calcium reduction” value ([3]; third hour) was 24.48±2.83%.
